Publication PMC11806654, “In Vitro Discovery of a Therapeutic Lead for HFMD From a Library Screen of Rocaglates/Aglains” (Journal of Medical Virology, 2025)
pEC50, pIC50: −log10 of the molar value. “Also recorded” adds a separate entry of the source. Like-named read-outs stand apart in the source and are kept apart here.

Tests used:
A549 = test system: A549; parameters: method as in PMID 11170675; settings: A549 cell line; cited from earlier work
P-388 = test system: P-388; parameters: method as in PMID 11170675; settings: P-388 cell line; cited from earlier work
EV-A71 [1] = assay: High-throughput immunofluorescence antiviral screen in NSC-34 cells; format: cell-based, human enterovirus A71; settings: for log reduction at 10 µM: Enterovirus A
EV-A71 [2] = assay: Plaque-assay antiviral validation in NSC-34 cells; format: cell-based, human enterovirus A71; settings: for Maximum viral titre reduction observed in dose response (Log): EV-A71 MOI 1, plaque assay; for pEC50: Enterovirus A, EVA71, EV-A71 MOI 1, plaque assay
Method: (§1) The complete cytotoxicity profiles of selected rocaglate/aglain derivatives against NSC‐34 or SH‐SY5Y cells were determined via the alamarBlue assay. Treated cells were incubated with the compounds for 12 h (NSC‐34) or 24 h (SH‐SY5Y). Negative and vehicle controls of this assay involved cells treated with fresh reduced serum DMEM and 0.1% DMSO, respectively. Cell viability in each treatment group was determined based on the intensity of colorimetric changes of each treatment group. […] Following incubation, infected cells were rinsed with sterile 1X PBS to remove any unbound virus particles. Specific concentrations of respective compounds were added to the cells in triplicates and incubated for 12 h (NSC‐34) or 24 h (SH‐SY5Y). At the end of the incubation period, two cycles of freeze‐thaws (−80°C; 37°C) were performed on the plates before collection of supernatants from each treatment or control group for virus titre measurement via plaque assay, as described.
(§2) (A) NSC‐34 cells were treated with various concentrations of respective compounds, in the presence or absence of EV‐A71 (MOI 1) infection. Resulting cell viability and virus yield from respective experimental setups were determined via alamarBlue and plaque assays, respectively. […] For (B), (C) and (D), virus titres were represented in bars and shown on the left‐hand y‐axis, whereas cell viabilities were presented in lines and illustrated on the right‐hand y‐axis.
(§3) Figure S1. Validation of cytotoxicity and antiviral profiles of compound 13 in NSC-34 cells. NSC-34 cells were treated with specific concentrations of compound 13 in the presence or absence of EV-A71 (MOI 1) infection. Resulting cell viability and virus yield from respective experimental setups were determined via alamarBlue^TM and plaque assays, respectively.

in vitro [3] = settings: mouse
Method: as §1, §2, §3

in vitro [4] = settings: mouse; remark: listed apart in the source
NSC-34 cells [5] = assay: alamarBlue cytotoxicity screen; settings: screen, 10 µM
SARS-CoV-2 = test system: SARS-CoV-2; parameters: method as in PMID 39117283; settings: cited from earlier work
NSC-34 cells [6] = assay: in vitro
Method: as §1, §2, §3

[7] = alamarBlue cytotoxicity screen; settings: mouse, NSC-34 cells
CV-A16 = assay: Pan-enterovirus plaque assay in SH-SY5Y cells, CV-A16; format: cell-based, Coxsackievirus A16
Method: as §1
(§4) (A) NSC‐34 cells were treated with various concentrations of respective compounds, in the presence or absence of EV‐A71 (MOI 1) infection. Resulting cell viability and virus yield from respective experimental setups were determined via alamarBlue and plaque assays, respectively. […]

EV-A71 [8] = assay: Plaque-assay antiviral dose response in SH-SY5Y cells; format: cell-based, human enterovirus A71
Method: as §1, §4

[9] = test system: replication-defective EV-A71 replicon; assay: Nano-luciferase replicon assay, replication-defective; settings: SH-SY5Y cells, 24 h
Method: (§5) Using DharmaFECT 1 transfection reagent (Dharmacon), SH‐SY5Y cells seeded in 96‐well plates were transfected with either our established replication‐competent or replication‐defective EV‐A71 replicon construct [27, 29] and incubated for 4 h. At the end of incubation, the transfected cells were washed with sterile 1X PBS and treated with 0.1% DMSO or respective concentrations of test compound or positive controls. Guanidine hydrochloride (GuHCl) was used as positive control for the replication‐competent replicon, and cycloheximide (CHX) was used as positive control for the replication‐defective replicon. After 24 h, luciferase signal detection was subsequently performed using the Nano‐Glo kit (Promega, Madison, WI, USA) with a GLOMAX Multi‐Detection System microplate reader (Promega, Madison, WI, USA).
(§6) Guanidine hydrochloride (GuHCl), an eukaryotic RNA transcription inhibitor [38], and cycloheximide (CHX), an inhibitor of the elongation phase during RNA translation [39], were used as positive controls of respective assays. 0.1% DMSO served as the mock control group of respective assays. Luminescence readings generated by SH‐SY5Y cells transfected with either the established replication‐competent or replication‐defective replicons [27] were measured using a microplate reader and normalized against the DMSO control. […]

EV-A71 [10] = assay: Plaque-assay antiviral dose response in RD cells; format: cell-based, human enterovirus A71; settings: Enterovirus A, EVA71
Method: as §1, §4

EV-A71 [11] = assay: Time-of-addition / time-of-removal assay in SH-SY5Y cells; format: cell-based, human enterovirus A71; settings: 8 μM
[12] = alamarBlue cytotoxicity dose response, RD; format: cell-based; settings: human, RD cells
EV-A71 [13] = assay: Pre-treatment assay in SH-SY5Y cells; settings: cells exposed to compound before infection
Method: (§7) The assays were performed in SH‐SY5Y cells in triplicates and resulting virus titres were quantified via plaque assays as previously described [27].
(§8) (A) Time‐of‐addition (TOA) and time‐of‐removal (TOR) of compound 13 (8 μM) at specific time points across the EV‐A71 replication cycle in SH‐SY5Y cells. For TOA, virus‐containing media was aspirated and replaced with compound 13 (8 μM) at 0, 2, 4, 6, 8, 10, 12 or 18 h postinfection (h.p.i.). […] At 24 h.p.i., supernatant from each treatment and control group was collected for virus quantification via plaque assay. Separately, SH‐SY5Y cells were infected with EV‐A71 (MOI 1) and treated with specific concentrations of compound 13 according to previously published experimental schemes for (B) pre‐treatment, (C) co‐treatment and (D) entry‐bypass assays [27]. At 24 h.p.i., supernatant was collected and used for virus yield measurement via plaque assay. Every assay was performed in triplicates with error bars representing standard deviation from the mean of triplicates. 0.1% DMSO served as the mock control group of respective assays.
(§9) In the pre‐treatment set‐up, host cells were first treated with the compound before virus challenge. […] Conversely, in the co‐treatment assay extracellular virions were treated with the compound before infecting the cells. […]

CV-A6 = assay: Pan-enterovirus plaque assay in SH-SY5Y cells, CV-A6; format: cell-based
Method: as §1, §4

[14] = alamarBlue cytotoxicity dose response, SH-SY5Y; format: cell-based; settings: human, SH-SY5Y cells
Method: as §1, §4

EV-A71 [15] = assay: Co-treatment assay in SH-SY5Y cells; settings: compound present during infection
Method: as §7, §8, §9

[16] = test system: positive- and negative-sense RNA of EV-A71; assay: qRT-PCR strand-specific viral RNA quantification; format: cell-based, human enterovirus A71; settings: 6 and 8 µM, 12 and 24 h.p.i., SH-SY5Y cells
EV-A71 [17] = assay: Entry-bypass assay (viral RNA transfection) in SH-SY5Y cells; format: cell-based, human enterovirus A71
Method: Having excluded the virus attachment and entry steps, we deemed it likely that aglain 13 targets the early post‐entry stages of EV‐A71 life cycle involving the initial virus uncoating, viral RNA genome replication or protein production. As packaging and secretion of newly synthesized EV‐A71 virions from infected cells generally begin after 6 h.p.i., compound 13 is unlikely to interfere with the later phases of the virus life cycle (Figure 6A). The ability of compound 13 to interfere with EV‐A71 post‐entry events was further corroborated via our entry‐bypass assay wherein host cells were first transfected with in vitro isolated viral RNA before compound treatment (Figure 6D). […] As compound 13 targets the intracellular replication steps of EV‐A71, its effects on two primary pre‐packaging stages of the virus life cycle, namely viral RNA replication and protein production, were evaluated.

EV-A71 [18] = assay: Plaque-assay antiviral dose response in primary HBMECs; format: cell-based, human enterovirus A71; settings: Enterovirus A, EVA71
Method: (§10) Evaluation of cytotoxicity and antiviral profiles of compound 13 in primary human brain microvascular endothelial cells (HBMECs). HBMECs were treated with specific concentrations of compound 13, in the presence or absence of EV-A71 (MOI 1) infection. Resulting cell viability and virus yield from respective experimental setups were determined via alamarBlue^TM and plaque assays, respectively.

[19] = test system: replication-competent EV-A71 replicon; assay: Nano-luciferase replicon assay, replication-competent; settings: SH-SY5Y cells, 24 h
Method: as §5, §6

EV-A71 VP2 = assay: Immunoblotting of viral protein; settings: SH-SY5Y cells, versus vehicle control
Method: Cells from specific treatment and control groups were lysed with lysis buffer containing 1X Laemmli buffer. The resulting cell lysates were heated for 10 min at 95°C and subjected to SDS‐PAGE run in 10% acrylamide gels at 100 V for 2 h. The proteins were then transferred to a polyvinylidene fluoride membrane using the Trans‐Blot Turbo system (Bio‐Rad). Following a 20 min membrane blocking using 2% bovine serum albumin (BSA) dissolved in Tris‐buffered saline‐Tween 20 (TBST), specific viral protein and host loading controls were probed using the mouse antibodies targeting EV‐A71 VP2 (MAB979) and host β‐actin, respectively. After 1 h incubation with constant rocking at room temperature, the membranes were subjected to three rounds of washes using TBST before incubation at room temperature with horseradish peroxidase (HRP) conjugated goat anti‐mouse IgG secondary antibody (Thermo Fisher Scientific) for 1 h. Following three rounds of membrane washing with TBST, specific protein bands were developed using the Immobilon Western Chemiluminescent HRP substrate (Merck Millipore) for 3 min. […]
Lysates of EV‐A71 (MOI 1)‐infected SH‐SY5Y cells treated with specific concentrations of compound 13 were used for (A) qRT‐PCR‐based viral strand‐specific RNA quantification or (B) immunoblotting measurement of specific protein levels. […]

[20] = alamarBlue cytotoxicity dose response, HBMECs; format: cell-based; settings: human, primary human brain microvascular endothelial cells (HBMECs)
Method: as §10

NF-κB = settings: read-out: NF-κB inhibition IC50; cited from earlier work
[21] = EVA71, screen, 10 µM, NSC-34 cells, EV-A71 MOI 1, 12 h, read-out: EV-A71 inhibition (logs), reduction in viral titre
[22] = EVA71, NSC-34, 12 h, read-out: EV-A71 inhibition (logs), reduction in viral titre, screen, 10 µM, NSC-34 cells, EV-A71 MOI 1, 12 h

Compound: CC=C(C)C(=O)NC1CCCN1C(=O)C1C(c2ccccc2)C2(c3ccc(OC)cc3)Oc3cc(OC)cc(OC)c3C1(O)C2O (stereo not shown) [Compound 9, (‐)‐elliptifoline]
- cytotoxic activity ED50 (A549): 18.9 µg/mL
- cytotoxic activity ED50 (P-388): 3.4 µg/mL

Compound: COC(=O)C1C(O)C2(O)c3c(OC)cc(OC)cc3OC2(c2ccc(OC)cc2)C1c1ccccc1 (stereo not shown) [Compound 6, reference compound]
- log reduction at 10 µM (EV-A71 [1]; [21]): > 2
- antiviral activity in screen (EV-A71 [1]; screen, 10 µM, NSC-34 cells): appreciable antiviral activity

Compound: COC(=O)C1C(c2ccccc2)C2(c3ccc(Br)cc3)C(=O)C1(O)c1c(OC)cc(OC)cc1N2C (stereo not shown) [Compound 15]
- Maximum viral titre reduction observed in dose response (Log) (EV-A71 [2]): 0.74 Log
- pEC50 (EV-A71 [2]): 5.28
- log reduction at 10 µM (EV-A71 [1]; [22]): 1.2
- CC50 at 12 h (in vitro [3]): > 50 µM
- viability at 12 h, 10 µM (in vitro [4]): 91%

Compound: COc1ccc(C23Oc4cc(OC)cc(OC)c4C24NC(C)=NC4(O)C(C(=O)N(C)OC)C3c2ccccc2)cc1 (stereo not shown) [Compound 4]
- log reduction at 10 µM (EV-A71 [1]; [22]): > 2
- antiviral activity in screen (EV-A71 [1]; screen, 10 µM, NSC-34 cells): appreciable antiviral activity
- host cell cytotoxicity in screen (NSC-34 cells [5]): unacceptably toxic; also recorded: high level of host cell cytotoxicity
- inhibition of SARS-CoV-2 replication (SARS-CoV-2): inhibition of SARS‐CoV‐2 replication

Compound: CONC(=O)C1C(O)C2(O)c3c(OC)cc(OC)cc3OC2(c2ccc(OC)cc2)C1c1ccccc1 (stereo not shown) [Compound 3, CR‐1‐31b, reference compound]
- log reduction at 10 µM (EV-A71 [1]; [21]): > 2
- antiviral activity in screen (EV-A71 [1]; screen, 10 µM, NSC-34 cells): appreciable antiviral activity
- host cell cytotoxicity in screen (NSC-34 cells [5]): unacceptably toxic; also recorded: high level of host cell cytotoxicity

Compound: COC(=O)C1C(c2ccccc2)C2(c3ccc(Br)cc3)C(O)C1(O)c1c(OC)cc(OC)cc1N2C (stereo not shown) [Compound 16]
- Maximum viral titre reduction observed in dose response (Log) (EV-A71 [2]): 0.89 Log
- pEC50 (EV-A71 [2]): 4.35
- log reduction at 10 µM (EV-A71 [1]; [22]): 1.4
- antiviral activity in screen (EV-A71 [1]; screen, 10 µM, NSC-34 cells): showed antiviral activity
- CC50 at 12 h (in vitro [3]): > 50 µM
- viability at 12 h, 10 µM (in vitro [4]): 81%

Compound: COC(=O)C1C(c2ccccc2)C2(c3ccc(OC)cc3)Oc3cc(OC)cc(OC)c3C1(O)C2O (stereo not shown) [Compound 17]
- log reduction at 10 µM (EV-A71 [1]; [22]): 0.1
- antiviral activity in screen (EV-A71 [1]; screen, 10 µM, NSC-34 cells): no measurable antiviral activity
- viability at 12 h, 10 µM (in vitro [4]): 108%
- host cell cytotoxicity in screen (NSC-34 cells [5]): non‐cytotoxic

Compound: COC(=O)C1C(c2ccccc2)C2(c3ccc(Br)cc3)Oc3cc(OC)cc(OC)c3C1(O)C2=O (stereo not shown) [Compound 18]
- host cell cytotoxicity in dose response (NSC-34 cells [6]): significant degree of cytotoxicity
- CC50 at 12 h (in vitro [3]): 13.1 µM

Compound: COc1ccc(C23Oc4cc(OC)cc(OC)c4C(O)(C2=O)C(c2ccccc2)C3c2ccccc2)cc1 (stereo not shown) [Compound 14]
- Maximum viral titre reduction observed in dose response (Log) (EV-A71 [2]): 0.82 Log
- pEC50 (EV-A71 [2]): 4.72
- log reduction at 10 µM (EV-A71 [1]; EVA71, NSC-34, 12 h, screen, 10 µM, NSC-34 cells, EV-A71 MOI 1, 12 h, read-out: EV-A71 inhibition (logs), reduction in viral titre): ~1
- EV-A71 inhibition (logs), reduction in viral titre (EV-A71 [1]; screen, 10 µM, NSC-34 cells, EV-A71 MOI 1, 12 h): 1.0 logs
- CC50 at 12 h (in vitro [3]; NSC-34 cells): 42.6 µM
- viability at 12 h, 10 µM [7]: 106%

Compound: COc1ccc(C23Oc4cc(OC)cc(OC)c4C(O)(C(c4c(F)c(F)c(F)c(F)c4F)C2c2ccccc2)C3O)cc1 (stereo not shown) [Compound 13]
- downregulation of virus titer (EV-A71 [2]; 15 µM): approximately 2 logs
- selectivity index (SI = CC50/EC50) (EV-A71 [2]; EV-A71): 6.1
- Maximum viral titre reduction observed in dose response (Log) (EV-A71 [2]): 2.53 Log
- pEC50 (EV-A71 [2]): 5.45
- infectious CV-A16 titers (CV-A16; 6 and 8 µM, SH-SY5Y cells): significantly reduced
- pEC50 (CV-A16; Enterovirus A, CVA16, CV-A16 in SH-SY5Y cells): 6.10
- log reduction at 10 µM (EV-A71 [1]; [22]): 2.3
- downregulation of virus titer (EV-A71 [8]; 8 µM, SH-SY5Y cells): approximately 2 logs
- pEC50 (EV-A71 [8]; Enterovirus A, EVA71, EV-A71 in SH-SY5Y cells): 5.27
- luciferase signal, replication-defective replicon [9]: significantly decreased
- pEC50 (EV-A71 [10]): 6.37
- time of addition at which EV-A71 yields were suppressed (EV-A71 [11]; TOA): < 6 h.p.i.
- viral load on time-of-removal (EV-A71 [11]; TOR, every time point up to 18 h.p.i.): continuous reduction in the viral load
- CC50 at 12 h (in vitro [3]): 21.8 µM
- CC50 [12]: 11.2 µM
- inhibition of EV-A71 replication, pre-treatment (EV-A71 [13]): ineffective inhibition; also recorded: no significant inhibition
- viability at 10 µM (in vitro [4]; Cell Viability (%), screen, 10 µM, NSC-34 cells, 12 h): > 90%
- infectious CV-A6 titers (CV-A6; 6 and 8 µM, SH-SY5Y cells): significantly reduced
- pEC50 (CV-A6; Enterovirus A, CVA6, CV-A6 in SH-SY5Y cells): 6.29
- CC50 at 24 h [14]: 11 µM
- inhibition of EV-A71 replication, co-treatment (EV-A71 [15]): ineffective inhibition; also recorded: no significant inhibition
- positive- and negative-sense RNA of EV-A71 [16]: significant decrease
- suppression of virus yields, entry-bypass (EV-A71 [17]; 6 µM): 0.88 logs
- suppression of virus yields, entry-bypass (EV-A71 [17]; 8 µM): 2.27 logs
- Cell Viability (%) (NSC-34 cells [5]; 12 h): 91%
- pEC50 (EV-A71 [18]): 4.48
- luciferase signal, replication-competent replicon [19]: significantly decreased
- downregulation of viral protein expression levels (VP2) (EV-A71 VP2): > 50%
- CC50 [20]: 89.4 µM

Compound: COc1ccc(C23Oc4cc(OC)cc(OC)c4C(O)(C(C(=O)N4CCCC4OC)C2c2ccccc2)C3O)cc1 (stereo not shown) [Compound 8, (‐)‐ponapensin]
- pIC50 (NF-κB): 7.22
